This data set can be described thus: activity coefficient (dimensionless); of the first substance listed, at infinite dilution; xn = mol fraction of the nth substance listed. The conditions noted are these: 101.33 kPa, Liquid, Chromatography, x1 = 0.

This note sets out measurements from the NIST ThermoML archive (doi:10.1016/j.fluid.2014.06.021).

Numbers after ± are expanded uncertainties.

Consider `C[N+](=O)[O-]` [nitromethane] + C[n+]1ccn(CCCCS(=O)(=O)O)c1.O=S(=O)([O-])O, for which the activity coefficient runs as follows: (323.15 K) 1.58 ± 0.1; (333.15 K) 1.59 ± 0.11; (343.15 K) 1.6 ± 0.11.

`CCCC(C)=O` [pentan-2-one] + C[n+]1ccn(CCCCS(=O)(=O)O)c1.O=S(=O)([N-]S(=O)(=O)C(F)(F)F)C(F)(F)F: the activity coefficient worked out at 0.42 ± 0.04 (323.15 K), 0.52 ± 0.04 (333.15 K) and 0.64 ± 0.04 (343.15 K).

On to `CCCC(C)=O` [pentan-2-one] + C[n+]1ccn(CCCCS(=O)(=O)O)c1.O=S(=O)([O-])C(F)(F)F, for which the activity coefficient (323.15 K) was 2.11 ± 0.14, the activity coefficient (333.15 K) turned out to be 2.14 ± 0.15 and the activity coefficient (343.15 K) worked out at 2.19 ± 0.15.

For the compound `CCCC(C)=O` [pentan-2-one] + C[n+]1ccn(CCCCS(=O)(=O)O)c1.O=S(=O)([O-])O, the activity coefficient is, setting by setting: (323.15 K) 13.4 ± 0.92; (333.15 K) 13.2 ± 0.9; (343.15 K) 12.5 ± 0.85.

In the case of `CCC(=O)CC` [pentan-3-one] + C[n+]1ccn(CCCCS(=O)(=O)O)c1.O=S(=O)([N-]S(=O)(=O)C(F)(F)F)C(F)(F)F, the activity coefficient (323.15 K) worked out at 0.54 ± 0.04, the activity coefficient (333.15 K) turned out to be 0.64 ± 0.04 and the activity coefficient (343.15 K) stood at 0.77 ± 0.05.

Consider `CCC(=O)CC` [pentan-3-one] + C[n+]1ccn(CCCCS(=O)(=O)O)c1.O=S(=O)([O-])C(F)(F)F, for which the activity coefficient turned out to be 2.31 ± 0.16 (323.15 K), 2.33 ± 0.16 (333.15 K) and 2.44 ± 0.17 (343.15 K).

With `CCC(=O)CC` [pentan-3-one] + C[n+]1ccn(CCCCS(=O)(=O)O)c1.O=S(=O)([O-])O, the activity coefficient (323.15 K) is 14.2 ± 0.97, the activity coefficient (333.15 K) is 13.8 ± 0.94 and the activity coefficient (343.15 K) was found to be 13.2 ± 0.9.

For the compound `CCCO` [propan-1-ol] + C[n+]1ccn(CCCCS(=O)(=O)O)c1.O=S(=O)([N-]S(=O)(=O)C(F)(F)F)C(F)(F)F, the activity coefficient was 0.13 ± 0.03 (333.15 K) and 0.16 ± 0.03 (343.15 K).

With `CC(C)O` [propan-2-ol] + C[n+]1ccn(CCCCS(=O)(=O)O)c1.O=S(=O)([N-]S(=O)(=O)C(F)(F)F)C(F)(F)F, the activity coefficient (333.15 K) was 0.09 ± 0.03 and the activity coefficient (343.15 K) stood at 0.11 ± 0.03.

On to `ClC(Cl)(Cl)Cl` [tetrachloromethane] + C[n+]1ccn(CCCCS(=O)(=O)O)c1.O=S(=O)([N-]S(=O)(=O)C(F)(F)F)C(F)(F)F, for which the activity coefficient reads like this: (323.15 K) 7.71 ± 0.53; (333.15 K) 7.99 ± 0.54; (343.15 K) 8.1 ± 0.6.

In the case of `ClC(Cl)(Cl)Cl` [tetrachloromethane] + C[n+]1ccn(CCCCS(=O)(=O)O)c1.O=S(=O)([O-])C(F)(F)F, the activity coefficient was found to be 12.4 ± 0.85 (323.15 K), 12.1 ± 0.83 (333.15 K) and 11.4 ± 0.78 (343.15 K).

Regarding `CCCCCCCCCCCCCC` [tetradecane] + C[n+]1ccn(CCCCS(=O)(=O)O)c1.O=S(=O)([N-]S(=O)(=O)C(F)(F)F)C(F)(F)F, the activity coefficient reads like this: (323.15 K) 1180 ± 81; (333.15 K) 1060 ± 73; (343.15 K) 941 ± 65.

Turning to `CCCCCCCCCCCCCC` [tetradecane] + C[n+]1ccn(CCCCS(=O)(=O)O)c1.O=S(=O)([O-])O, the activity coefficient reads like this: (323.15 K) 1910 ± 130; (333.15 K) 1750 ± 120; (343.15 K) 1680 ± 120.

As to `c1ccsc1` [thiophene] + C[n+]1ccn(CCCCS(=O)(=O)O)c1.O=S(=O)([N-]S(=O)(=O)C(F)(F)F)C(F)(F)F, the activity coefficient is, setting by setting: (323.15 K) 0.83 ± 0.05; (333.15 K) 0.83 ± 0.05; (343.15 K) 0.82 ± 0.05.

For the compound `c1ccsc1` [thiophene] + C[n+]1ccn(CCCCS(=O)(=O)O)c1.O=S(=O)([O-])C(F)(F)F, the activity coefficient came out at 2.24 ± 0.15 (323.15 K), 2.23 ± 0.15 (333.15 K) and 2.22 ± 0.15 (343.15 K).

As to `c1ccsc1` [thiophene] + C[n+]1ccn(CCCCS(=O)(=O)O)c1.O=S(=O)([O-])O, the activity coefficient is 6.56 ± 0.45 (323.15 K), 6.43 ± 0.44 (333.15 K) and 6.13 ± 0.42 (343.15 K).

On to `Cc1ccccc1` [toluene] + C[n+]1ccn(CCCCS(=O)(=O)O)c1.O=S(=O)([N-]S(=O)(=O)C(F)(F)F)C(F)(F)F, for which the activity coefficient was 3.1 ± 0.2 (323.15 K), 3.28 ± 0.22 (333.15 K) and 3.31 ± 0.23 (343.15 K).

For `Cc1ccccc1` [toluene] + C[n+]1ccn(CCCCS(=O)(=O)O)c1.O=S(=O)([O-])C(F)(F)F, the activity coefficient by setting is: (323.15 K) 5.74 ± 0.39; (333.15 K) 5.54 ± 0.38; (343.15 K) 5.54 ± 0.38.

For the compound `Cc1ccccc1` [toluene] + C[n+]1ccn(CCCCS(=O)(=O)O)c1.O=S(=O)([O-])O, the activity coefficient (323.15 K) came to 28.3 ± 1.9, the activity coefficient (333.15 K) was determined as 26.6 ± 1.8 and the activity coefficient (343.15 K) amounted to 24.9 ± 1.7.

With `ClC(Cl)Cl` [trichloromethane] + C[n+]1ccn(CCCCS(=O)(=O)O)c1.O=S(=O)([N-]S(=O)(=O)C(F)(F)F)C(F)(F)F, the activity coefficient (323.15 K) was 1.81 ± 0.12, the activity coefficient (333.15 K) was 1.83 ± 0.12 and the activity coefficient (343.15 K) was 1.86 ± 0.13.

For the compound `ClC(Cl)Cl` [trichloromethane] + C[n+]1ccn(CCCCS(=O)(=O)O)c1.O=S(=O)([O-])C(F)(F)F, the activity coefficient runs as follows: (323.15 K) 2.12 ± 0.14; (333.15 K) 2.18 ± 0.15; (343.15 K) 2.19 ± 0.15.

Take `ClC(Cl)Cl` [trichloromethane] + C[n+]1ccn(CCCCS(=O)(=O)O)c1.O=S(=O)([O-])O: the activity coefficient stood at 6.65 ± 0.45 (323.15 K), 6.73 ± 0.46 (333.15 K) and 6.84 ± 0.47 (343.15 K).

For the compound `CCCCCCCCCCCCC` [tridecane] + C[n+]1ccn(CCCCS(=O)(=O)O)c1.O=S(=O)([N-]S(=O)(=O)C(F)(F)F)C(F)(F)F, the activity coefficient runs as follows: (323.15 K) 1080 ± 75; (333.15 K) 911 ± 63; (343.15 K) 832 ± 57.

For the compound `CCCCCCCCCCCCC` [tridecane] + C[n+]1ccn(CCCCS(=O)(=O)O)c1.O=S(=O)([O-])C(F)(F)F, the activity coefficient is 1940 ± 130 (323.15 K), 1550 ± 110 (333.15 K) and 1220 ± 84 (343.15 K).

Take `CCCCCCCCCCCCC` [tridecane] + C[n+]1ccn(CCCCS(=O)(=O)O)c1.O=S(=O)([O-])O: the activity coefficient is, setting by setting: (323.15 K) 1540 ± 110; (333.15 K) 1410 ± 97; (343.15 K) 1350 ± 93.

With `CCCCCCCCCCC` [undecane] + C[n+]1ccn(CCCCS(=O)(=O)O)c1.O=S(=O)([N-]S(=O)(=O)C(F)(F)F)C(F)(F)F, the activity coefficient (323.15 K) worked out at 515 ± 35, the activity coefficient (333.15 K) turned out to be 448 ± 31 and the activity coefficient (343.15 K) was 425 ± 29.

Take `CCCCCCCCCCC` [undecane] + C[n+]1ccn(CCCCS(=O)(=O)O)c1.O=S(=O)([O-])O: the activity coefficient came to 1490 ± 100 (323.15 K), 1370 ± 94 (333.15 K) and 1310 ± 90 (343.15 K).
